Data on five compounds can be found in patent US6461997B1, “Triazole sulfones having herbicidal activity” (Monsanto Technology LLC, priority 1999, dated 2002).

The test system of test [1] is LAMPU (purple deadnettle). In words: Pre-emergence herbicidal activity, cool season. Format: in vivo, Lamium purpureum. The settings on record: lowest tested rate with 80% or greater inhibition; rates 300, 100, 30, 10 g/ha; about 14 days. As to the method: (§1) Tables 5 to 8 summarize results of tests conducted as described below to determine the pre-emergence herbicidal activity, in the form of a GR80 value, of illustrative compounds of this invention. […] Compounds of the invention were typically applied at rates of 300, 100, 30, and 10 g/ha. Where herbicidal activity was evident but 80% inhibition was not achieved at the highest rate tested, an asterisk (*) is shown in the following tables.
(§2) The pre-emergence tests were conducted by the following procedure. Topsoil was sieved to pass through a 1.27 cm screen. Fertilizer was added to the topsoil and the mixture was then sterilized by heating. The topsoil mixture was placed in a pot and compacted to a depth of 1.0 to 1.25 cm from the top of the pot. Seeds of each of several monocotyledonous and dicotyledonous annual plant species were placed on top of the soil. Additional soil was subsequently placed over the seeds to level-fill the pot. A known amount of each test compound dissolved or suspended in an appropriate organic solvent was diluted with a 50:50 mix of acetone and water and applied to the surface of the soil. After treatment the plants were placed in a greenhouse where they received 0.64 cm of overhead irrigation. All subsequent watering consisted of a light overhead mist and/or subirrigation as needed for germination and growth. Tables 5 and 6 below relate to warm season plant species which were placed after pre-emergence treatment in a greenhouse with a 30/21° C. day/night temperature regime. Tables 7 and 8 below relates to cool season plant species placed after pre-emergence treatment in a greenhouse or growth chamber with an 18/13° C. day/night temperature regime.
(§3) Approximately 14 days after planting and treating, the plants were observed and herbicidal efficacy recorded as percent inhibition by comparison with untreated plants.
(§4) The plant species usually regarded as weeds which were utilized in the tests are identified in the tables below according to the following legend, in which “d” indicates a dicotyledonous species and “m” a monocotyledonous species. All monocotyledonous species included in the tests herein are grasses.

Test [2] has as its system SINAR (wild mustard). Put plainly: Pre-emergence herbicidal activity, cool season. Particulars: lowest tested rate with 80% or greater inhibition; rates 300, 100, 30, 10 g/ha; about 14 days. Format: in vivo, Sinapis arvensis. As to the method:
as §1, §2, §3, §4

Test [3] concerns ALOMY (blackgrass). In words: Pre-emergence herbicidal activity, cool season. Particulars: GR80 = lowest tested rate (300, 100, 30, 10 g/ha) with 80% or greater inhibition; approx. 14 days after treating; 18/13° C. Format: in vivo, Alopecurus myosuroides. The procedure: as §1, §2, §3, §4
Test [4] deals with STEME (common chickweed). Put plainly: Pre-emergence herbicidal activity, cool season. The format is in vivo, Stellaria media. The settings on record: lowest tested rate with 80% or greater inhibition; rates 300, 100, 30, 10 g/ha; about 14 days. As to the method:
as §1, §2, §3, §4

Test [5] relates to VERPE (creeping speedwell). Put plainly: Pre-emergence herbicidal activity, cool season. The format is in vivo, Veronica persicaria. The settings on record: lowest tested rate with 80% or greater inhibition; rates 300, 100, 30, 10 g/ha; about 14 days. As to the method: as §1, §2, §3, §4
The subject of test [6] is CHEAL (common lambsquarters). Put plainly: Pre-emergence herbicidal activity, warm season. Format: in vivo, Chenopodium album. Particulars: GR80 = lowest tested rate (300, 100, 30, 10 g/ha) with 80% or greater inhibition; approx. 14 days after treating; 30/21° C. The procedure: as §1, §2, §3, §4
Test [7] has as its system SASKR (russian thistle). Put plainly: Pre-emergence herbicidal activity, cool season. Format: in vivo, Salsola kali. The settings on record: lowest tested rate with 80% or greater inhibition; rates 300, 100, 30, 10 g/ha; about 14 days. As to the method:
as §1, §2, §3, §4

Test [8] relates to PANMI (wild proso millet). Put plainly: Pre-emergence herbicidal activity, warm season. The format is in vivo, Panicum miliaceum. Particulars: GR80 = lowest tested rate (300, 100, 30, 10 g/ha) with 80% or greater inhibition; approx. 14 days after treating; 30/21° C. The procedure:
as §1, §2, §3, §4

Test [9] concerns POLCO (wild buckwheat). Put plainly: Pre-emergence herbicidal activity, cool season. The format is in vivo, Polygonum convolvulus. Particulars: lowest tested rate with 80% or greater inhibition; rates 300, 100, 30, 10 g/ha; about 14 days. As to the method:
as §1, §2, §3, §4

For test [10], the system named is GALAP (catchweed bedstraw). Put plainly: Pre-emergence herbicidal activity, cool season. The format is in vivo, Galium aparine. Particulars: lowest tested rate with 80% or greater inhibition; rates 300, 100, 30, 10 g/ha; about 14 days. As to the method:
as §1, §2, §3, §4

Test [11] has as its system DIGSA (large crabgrass). Put plainly: Pre-emergence herbicidal activity, warm season. Format: in vivo, Digitaria sanguinalis. Particulars: GR80 = lowest tested rate (300, 100, 30, 10 g/ha) with 80% or greater inhibition; approx. 14 days after treating; 30/21° C. The procedure: as §1, §2, §3, §4
Test [12] deals with AGSST (creeping bentgrass). In words: Pre-emergence herbicidal activity, cool season. The format is in vivo, Agrostis stolonifera. The settings on record: GR80 = lowest tested rate (300, 100, 30, 10 g/ha) with 80% or greater inhibition; approx. 14 days after treating; 18/13° C. As to the method:
as §1, §2, §3, §4

Test [13] deals with SETVI (green foxtail). In words: Pre-emergence herbicidal activity, cool season. The format is in vivo, Setaria viridis. Particulars: GR80 = lowest tested rate (300, 100, 30, 10 g/ha) with 80% or greater inhibition; approx. 14 days after treating; 18/13° C. The procedure:
as §1, §2, §3, §4

Turning to `CN(C(=O)n1cnc(S(=O)(=O)C(F)F)n1)c1ccccc1` [Example 27], the “Pre-emergence activity GR80, LAMPU” value in [1] is 300 g/ha. In addition, in [2], the “Pre-emergence activity GR80, SINAR” value is “[empty]”. The “Pre-emergence activity (GR80) ALOMY” value in [3] amounted to 300 g/ha. In addition, in [4], the “Pre-emergence activity GR80, STEME” value is “[empty]”. The “Pre-emergence activity GR80, VERPE” value in test [5] worked out at 300 g/ha. In test [6], the “Pre-emergence activity (GR80) CHEAL” value is 300 g/ha. In test [7], the “Pre-emergence activity GR80, SASKR” value was 300 g/ha. Also, in test [8], the “Pre-emergence activity (GR80) PANMI” value is given as 100 g/ha. Besides, the “Pre-emergence activity GR80, POLCO” value in [9] turned out to be 30 g/ha. The “Pre-emergence activity GR80, GALAP” value in test [10] is 300 g/ha.

Consider `C#CCN(C)C(=O)n1cnc(S(=O)(=O)C(F)F)n1` [Example 31], for which the “Pre-emergence activity GR80, LAMPU” value in [1] was “[empty]”. The “Pre-emergence activity GR80, SINAR” value in test [2] is “[empty]”. For the same compound, in [4], the “Pre-emergence activity GR80, STEME” value is “[empty]”. The “Pre-emergence activity GR80, VERPE” value in test [5] was “[empty]”. In test [7], the “Pre-emergence activity GR80, SASKR” value is “[empty]”. For the same compound, the “Pre-emergence activity (GR80) DIGSA” value in test [11] stood at 300 g/ha. In addition, the “Pre-emergence activity GR80, POLCO” value in test [9] is “[empty]”. The “Pre-emergence activity GR80, GALAP” value in test [10] was “[empty]”.

Regarding `O=C(N1CCOCC1)n1cnc(S(=O)(=O)C(F)(F)Br)n1` [Example 36], the “Pre-emergence activity GR80, LAMPU” value in [1] was determined as 300 g/ha. Moreover, the “Pre-emergence activity GR80, SINAR” value in test [2] was “[empty]”. For the same compound, in [4], the “Pre-emergence activity GR80, STEME” value is “[empty]”. Further, the “Pre-emergence activity GR80, VERPE” value in test [5] is “[empty]”. Also, in [6], the “Pre-emergence activity (GR80) CHEAL” value came out at 300 g/ha. Moreover, the “Pre-emergence activity GR80, SASKR” value in [7] is “[empty]”. Moreover, in test [9], the “Pre-emergence activity GR80, POLCO” value is “[empty]”. The “Pre-emergence activity GR80, GALAP” value in [10] came out at 300 g/ha.

As for `C=CCN(C)C(=O)n1cnc(S(=O)(=O)C(F)(F)Br)n1` [Example 41], in test [1], the “Pre-emergence activity GR80, LAMPU” value is “[empty]”. Also, the “Pre-emergence activity GR80, SINAR” value in test [2] is “[empty]”. The “Pre-emergence activity (GR80) ALOMY” value in test [3] was 300 g/ha. In addition, in test [4], the “Pre-emergence activity GR80, STEME” value was “[empty]”. In addition, the “Pre-emergence activity GR80, VERPE” value in test [5] is on record as 100 g/ha. Moreover, in test [7], the “Pre-emergence activity GR80, SASKR” value was “[empty]”. Moreover, the “Pre-emergence activity (GR80) AGSST” value in test [12] came out at 30 g/ha. In test [8], the “Pre-emergence activity (GR80) PANMI” value was found to be 300 g/ha. The “Pre-emergence activity GR80, POLCO” value in test [9] was “[empty]”. The “Pre-emergence activity GR80, GALAP” value in [10] was “[empty]”.

Turning to `CON(C)C(=O)n1cnc(S(=O)(=O)C(F)(F)Br)n1` [Example 45], the “Pre-emergence activity GR80, LAMPU” value in test [1] is “[empty]”. The “Pre-emergence activity (GR80) SETVI” value in [13] came to 300 g/ha. In addition, the “Pre-emergence activity GR80, SINAR” value in test [2] is 300 g/ha. Further, the “Pre-emergence activity GR80, STEME” value in test [4] came to 300 g/ha. In addition, in [5], the “Pre-emergence activity GR80, VERPE” value is “[empty]”. Moreover, the “Pre-emergence activity (GR80) CHEAL” value in test [6] was 300 g/ha. In addition, the “Pre-emergence activity GR80, SASKR” value in test [7] is “[empty]”. Also, the “Pre-emergence activity GR80, POLCO” value in test [9] worked out at 100 g/ha. The “Pre-emergence activity GR80, GALAP” value in [10] is “[empty]”.
